Source: US8835646B2, “Organic compounds” (Novartis AG, priority 2005, dated 2014)

Legend:
human aromatase = target: T1, human aromatase (Homo sapiens, UniProt P11511); assay: human aromatase assay (Supersomes, DBF substrate, fluorescence); assay type: biochemical; conditions: 10000 nM
T1 construct: purchased Gentest (Woburn, Mass.)
T1 sequence (P11511 1-503): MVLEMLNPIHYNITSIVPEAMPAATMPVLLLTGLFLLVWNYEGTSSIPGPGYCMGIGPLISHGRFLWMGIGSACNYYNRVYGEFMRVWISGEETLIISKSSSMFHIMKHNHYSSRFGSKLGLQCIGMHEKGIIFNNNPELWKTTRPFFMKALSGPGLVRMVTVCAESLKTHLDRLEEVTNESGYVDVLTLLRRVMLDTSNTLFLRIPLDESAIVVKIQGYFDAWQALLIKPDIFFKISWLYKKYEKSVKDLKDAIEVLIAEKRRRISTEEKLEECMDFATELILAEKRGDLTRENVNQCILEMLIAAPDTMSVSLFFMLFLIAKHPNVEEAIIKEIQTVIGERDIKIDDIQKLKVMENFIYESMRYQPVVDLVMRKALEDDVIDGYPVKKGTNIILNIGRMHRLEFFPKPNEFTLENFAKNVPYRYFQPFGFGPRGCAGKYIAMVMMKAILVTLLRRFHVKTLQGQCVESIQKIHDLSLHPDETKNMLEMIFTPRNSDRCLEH
Text: (§1) Human adrenocortical carcinoma NCl-H295R cell line is obtained from American Type Culture Collection (Manassas, Va.). Insulin/transferrin/selenium (ITS)-A supplement (100×), DMEM/F-12, antibiotic/antimycotic (100×), and fetal calf serum (FCS) are purchased from Gibco (Grand Island, N.Y.). Anti-mouse PVT scintillation proximity assay (SPA) beads and NBS 96-well plates are obtained from Amersham (Piscataway, N.J.) and Corning (Acton, Mass.), respectively. Solid black 96-well flat bottom plates are purchased from Costar (Corning, N.Y.). Aldosterone and angiotensin (Ang II) are purchased from Sigma (St. Louis, Mo.). D-[1,2,6,7-^3H(N)]aldosterone was acquired from PerkinElmer (Boston, Mass.). Nu-serum was a product of BD Biosciences (Franklin Lakes, N.J.). The NADPH regenerating system, dibenzylfluorescein (DBF), and human aromatase Supersomes® are obtained from Gentest (Woburn, Mass.).
To measure aromatase activity, the human aromatase assay is performed in 96-well flat bottom plates according to a published protocol (Stresser et al, 2000) with minor modifications. Briefly, 10 μl of an NADPH regenerating system containing 2.6 mM NADP^+, 6.6 mM glucose 6-phosphate, 6.6 mM MgCl2, and 0.8 U/ml glucose-6-phosphate dehydrogenase in 50 mM potassium phosphate, pH 7.4, is pre-incubated with the test compound at a desired concentration at 30° C. for 10 min in a total volume of 100 μl. Afterwards, 4 pmol of human aromatase, 20 μg of control microsomal protein, and 4 μM DBF in 100 μl of 50 mM potassium phosphate, pH 7.4, is added to each well and incubated at 30° C. for 90 min. The reaction is terminated by the addition of 75 μl of 2 N NaOH to each well. After 2 hr, the product, fluorescein, is measured by a fluorimeter using excitation and emission wavelengths of 485 and 538 nm, respectively.
(§2) Full concentration-response curves of the test compound are performed at least 3 times. The IC50 values are derived using a non-linear least squares curve-fitting program from Microsoft XLfit.

aldosterone synthase = target: T2, aldosterone synthase (Homo sapiens, UniProt P19099); assay: cellular aldosterone production in NCI-H295R cells stimulated with Ang II (RIA/SPA); assay type: cell-based; conditions: human adrenocortical carcinoma NCI-H295R cells, 1 μM Ang II, 24 hr
T2 construct: host or cells: NCI-H295R
T2 sequence (P19099 25-503): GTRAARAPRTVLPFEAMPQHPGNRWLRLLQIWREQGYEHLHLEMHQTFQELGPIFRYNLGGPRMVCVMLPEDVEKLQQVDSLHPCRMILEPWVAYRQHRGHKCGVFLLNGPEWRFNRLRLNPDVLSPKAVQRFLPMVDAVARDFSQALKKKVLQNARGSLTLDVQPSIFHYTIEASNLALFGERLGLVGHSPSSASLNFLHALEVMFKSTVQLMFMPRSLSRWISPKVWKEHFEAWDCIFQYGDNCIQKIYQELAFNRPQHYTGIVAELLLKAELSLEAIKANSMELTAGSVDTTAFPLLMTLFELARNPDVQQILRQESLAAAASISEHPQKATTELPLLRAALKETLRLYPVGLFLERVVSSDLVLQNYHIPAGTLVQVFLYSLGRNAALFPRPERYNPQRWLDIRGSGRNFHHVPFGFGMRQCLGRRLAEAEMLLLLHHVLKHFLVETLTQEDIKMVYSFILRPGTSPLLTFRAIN
Text: as §1
For in vitro measurement of aldosterone activity, human adrenocortical carcinoma NCI-H295R cells are seeded in NBS 96-well plates at a density of 25,000 cells/well in 100 μl of a growth medium containing DMEM/F12 supplemented with 10% FCS, 2.5% Nu-serum, 1 μg ITS/ml, and 1× antibiotic/antimycotic. The medium is changed after culturing for 3 days at 37° C. under an atmosphere of 5% CO2/95% air. On the following day, cells are rinsed with 100 μl of DMEM/F12 and incubated with 100 μl of treatment medium containing 1 μM Ang II and a compound at different concentrations in quadruplicate wells at 37° C. for 24 hr. At the end of incubation, 50 μl of medium is withdrawn from each well for measurement of aldosterone production by an RIA using mouse anti-aldosterone monoclonal antibodies.
Measurement of aldosterone activity can also be performed using a 96-well plate format. Each test sample is incubated with 0.02 μCi of D-[1,2,6,7-^3H(N)]aldosterone and 0.3 μg of anti-aldosterone antibody in phosphate-buffered saline (PBS) containing 0.1% Triton X-100, 0.1% bovine serum albumin, and 12% glycerol in a total volume of 200 μl at room temperature for 1 hr. Anti-mouse PVT SPA beads (50 μl) are then added to each well and incubated overnight at room temperature prior to counting in a Microbeta plate counter. The amount of aldosterone in each sample is calculated by comparing with a standard curve generated using known quantities of the hormone.
as §2

Row | Structure (SMILES) | inhibition at 10 µM (human aromatase) | IC50 (aldosterone synthase)
1 | C=CCC1(c2ccc(C#N)cc2Br)CCCCc2cncn21 (stereo not drawn) [4-(5-Allyl-6,7,8,9-tetrahydro-5H-imidazo[1,5-a]azepin-5-yl)-3-bromobenzonitrile] | 97% | 32 nM
2 | COc1cc(C#N)ccc1C1CCc2cncn21 (stereo not drawn) [4-(6,7-Dihydro-5H-pyrrolo[1,2-c]imidazol-5-yl)-3-methoxybenzonitrile] | 100% | 18 nM
3 | C=Cc1cc(C#N)ccc1C1CCc2cncn21 (stereo not drawn) [4-(6,7-Dihydro-5H-pyrrolo[1,2-c]imidazol-5-yl)-3-vinylbenzonitrile] | 95% | 31 nM
4 | Fc1ccc(C2CCCCc3cncn32)c(Br)c1 (stereo not drawn) [5-(2-Bromo-4-fluorophenyl)-6,7,8,9-tetrahydro-5H-imidazo[1,5-a]azepine] | 92% | 65 nM
5 | COC(=O)C1(c2ccc(C#N)cc2Cl)CCc2cncn21 (stereo not drawn) [5-(2-Chloro-4-cyanophenyl)-6,7-dihydro-5H-pyrrolo[1,2-c]imidazole-5-carboxylic acid methyl ester] | 96% | 45 nM
6 | COc1ccc(C2CCc3cncn32)cc1F (stereo not drawn) [5-(3-fluoro-4-methoxyphenyl)-6,7-dihydro-5H-pyrrolo[1,2-c]imidazole] | 100% | 159 nM
7 | COC(=O)C1(c2cc(OC)c(C#N)cc2OC)CCc2cncn21 (stereo not drawn) [5-(4-Cyano-2,5-dimethoxyphenyl)-6,7-dihydro-5H-pyrrolo[1,2-c]imidazole-5-carboxylic acid methyl ester] | 98% | 113 nM
8 | COc1cc(C#N)ccc1C1(C(=O)N(C)Cc2ccc(F)cc2)CCc2cncn21 (stereo not drawn) [5-(4-Cyano-2-methoxyphenyl)-6,7-dihydro-5H-pyrrolo[1,2-c]imidazole-5-carboxylic acid (4-fluorobenzyl)methylamide] | 85% | 57 nM
9 | Fc1ccc(C2CCCc3cncn32)c(-c2ccsc2)c1 (stereo not drawn) [5-(4-Fluoro-2-thiophen-3-yl-phenyl)-5,6,7,8-tetrahydroimidazo[1,5-a]pyridine] | 88% | 93 nM
10 | Fc1ccc(C2CCCc3cncn32)c(-c2ccccc2)c1 (stereo not drawn) [5-(5-Fluorobiphenyl-2-yl)-5,6,7,8-tetrahydroimidazo[1,5-a]pyridine] | 98% | 57 nM

Molecules with a lower IC50 (aldosterone synthase), results first:

Row | inhibition at 10 µM (human aromatase) | IC50 (aldosterone synthase) | Structure (SMILES)
11 | 97% | 5 nM | COc1cc(C2CCc3cncn32)ccc1C#N (stereo not drawn) [4-(6,7-Dihydro-5H-pyrrolo[1,2-c]imidazol-5-yl)-2-methoxybenzonitrile]
12 | 95% | 3 nM | Cc1cc(C2CCc3cncn32)ccc1C#N (stereo not drawn) [4-(6,7-Dihydro-5H-pyrrolo[1,2-c]imidazol-5-yl)-2-methylbenzonitrile]
13 | 100% | 8 nM | C=Cc1cc(C2CCc3cncn32)ccc1C#N (stereo not drawn) [4-(6,7-Dihydro-5H-pyrrolo[1,2-c]imidazol-5-yl)-2-vinylbenzonitrile]
14 | 91% | 2 nM | CC1CCCC(c2ccc(C#N)cc2-c2ccc(F)cc2)n2cncc21 (stereo not drawn) [4′-Fluoro-6-(9-methyl-6,7,8,9-tetrahydro-5H-imidazo[1,5-a]azepin-5-yl)biphenyl-3-carbonitrile]
15 | 96% | 5 nM | COc1cc(C#N)ccc1C1(C(=O)OCCOC(C)C)CCc2cncn21 (stereo not drawn) [5-(4-Cyano-2-methoxyphenyl)-6,7-dihydro-5H-pyrrolo[1,2-c]imidazole-5-carboxylic acid 2-isopropoxyethyl ester]
16 | 100% | 6 nM | CCCCOC(=O)C1(c2ccc(C#N)cc2OC)CCc2cncn21 (stereo not drawn) [5-(4-Cyano-2-methoxyphenyl)-6,7-dihydro-5H-pyrrolo[1,2-c]imidazole-5-carboxylic acid butyl ester]
17 | 99% | 2 nM | COC(=O)C1(c2ccc(C#N)cc2OC(F)(F)F)CCc2cncn21 (stereo not drawn) [5-(4-Cyano-2-trifluoromethoxyphenyl)-6,7-dihydro-5H-pyrrolo[1,2-c]imidazole-5-carboxylic acid methyl ester]
18 | 99% | 11 nM | N#Cc1ccc(C2CC3(CC3)c3cncn32)c(F)c1 (stereo not drawn) [5′-[2-fluoro-4-cyano-phenyl]-5′,6′-dihydrospiro[cyclopropane-1,7′-pyrrolo[1,2-c]imidazole]]
